Legend:
PDGFRalpha(V561D) = target: T1, PDGFRalpha(V561D) (Homo sapiens, UniProt P16234, V561D); test: PDGFRalpha(V561D) assay; type: biochemical; details: recombinant human PDGFRalpha aa 550-end, 200 μM ATP, 1.4E-06 means 1.4×10^−6, read-out: Inhibition (IC50) of PDGFRα (V561D)
T1 construct: recombinant human PDGFRalpha, amino acids 550end containing the V561 D mutation; 6His (N)
Description: (§1) PDGFRalpha(V561D) (N-terminal 6His-tagged, recombinant human PDGFRalpha, amino acids 550end containing the V561 D mutation) is incubated with 8 mM MOPS pH 7.0, 0.2 mM EDTA, 250 μM GGMEDIYEFMGGKKK, 10 mM MgAcetate and [gamma-33P-ATP] (specific activity approx. 500 cpm/pmol, concentration 200 μM). The reaction is initiated by the addition of the MgATP mix. After incubation for 40 minutes at room temperature, the reaction is stopped by the addition of 3% phosphoric acid solution. 10 μL of the reaction is then spotted onto a P30 filtermat and washed three times for 5 minutes in 75 mM phosphoric acid and once in methanol prior to drying and scintillation counting.

c-Kit(V654A) = target: T2, c-Kit(V654A) (Homo sapiens, UniProt P10721, V654A); test: c-Kit(V654A) assay; type: biochemical; details: recombinant human c-Kit aa 544-end, 200 μM ATP, 1.4E-06 means 1.4×10^−6, read-out: Inhibition (IC50) of c-KIT (V654A)
T2 construct: amino acids 544-end containing the V654A mutation; GST (N)
T2 sequence (P10721 544-976 V654A): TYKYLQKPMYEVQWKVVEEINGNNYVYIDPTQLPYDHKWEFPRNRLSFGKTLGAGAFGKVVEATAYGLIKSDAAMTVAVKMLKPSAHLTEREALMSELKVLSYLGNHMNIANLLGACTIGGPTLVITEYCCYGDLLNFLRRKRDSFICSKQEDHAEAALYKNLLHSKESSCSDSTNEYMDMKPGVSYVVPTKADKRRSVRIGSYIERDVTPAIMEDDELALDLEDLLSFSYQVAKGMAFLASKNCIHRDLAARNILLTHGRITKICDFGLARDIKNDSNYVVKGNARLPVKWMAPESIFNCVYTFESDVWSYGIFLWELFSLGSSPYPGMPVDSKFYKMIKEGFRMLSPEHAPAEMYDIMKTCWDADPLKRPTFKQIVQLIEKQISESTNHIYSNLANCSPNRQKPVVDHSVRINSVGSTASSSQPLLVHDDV
Description: as §1, with “c-Kit(V654A)” for “PDGFRalpha(V561D)”, “GST-tagged,” for “6His-tagged,”, “c-Kit,” for “PDGFRalpha,”, “544-end” for “550end”, “V654A” for “V561 D”

T1 sequence (P16234 550-1089 V561D): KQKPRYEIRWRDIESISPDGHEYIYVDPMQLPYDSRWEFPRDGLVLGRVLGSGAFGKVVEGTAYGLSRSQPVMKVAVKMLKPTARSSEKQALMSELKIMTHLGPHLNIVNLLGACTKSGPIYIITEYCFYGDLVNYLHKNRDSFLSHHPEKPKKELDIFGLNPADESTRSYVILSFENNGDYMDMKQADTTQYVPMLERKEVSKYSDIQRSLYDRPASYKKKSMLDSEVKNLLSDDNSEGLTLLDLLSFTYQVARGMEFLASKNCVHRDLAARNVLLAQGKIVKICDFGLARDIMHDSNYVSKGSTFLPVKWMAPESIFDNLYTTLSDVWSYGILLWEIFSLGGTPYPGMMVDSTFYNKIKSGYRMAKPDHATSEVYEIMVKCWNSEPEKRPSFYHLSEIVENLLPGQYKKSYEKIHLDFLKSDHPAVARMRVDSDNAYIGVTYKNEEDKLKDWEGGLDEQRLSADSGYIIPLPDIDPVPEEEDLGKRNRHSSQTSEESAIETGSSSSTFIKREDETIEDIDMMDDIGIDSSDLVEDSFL

Structure (SMILES)	IC50 (PDGFRalpha(V561D)) [µM]	IC50 (c-Kit(V654A)) [µM]
O=C1COCCN1c1ccc(-n2cc(-c3cc4ccccc4[nH]c3=O)nn2)cc1F [A32, 3-{1-[3-fluoro-4-(3-oxo-morpholin-4-yl)-phenyl]-1H-[1,2,3]triazol-4-yl}-1H-quinolin-2-one]	0.011	0.064
O=C1COCCN1c1ccc(-n2cc(-c3cc4cc(F)ccc4[nH]c3=O)nn2)cc1F [A33, 6-fluoro-3-{1-[3-fluoro-4-(3-oxo-morpholin-4-yl)-phenyl]-1H-[1,2,3]triazol-4-yl}-1H-quinolin-2-one]	0.003	0.02
O=C1COCCN1c1ccc(-n2cc(-c3cc4ccccc4[nH]c3=O)nn2)cn1 [A34, 3-{1-[6-(3-oxo-morpholin-4-yl)-pyridin-3-yl]-1H-[1,2,3]triazol-4-yl}-1H-quinolin-2-one]	0.11	5.8
Cc1cc(C(=O)N2CCOCC2)ccc1-n1cc(-c2cc3ccccc3[nH]c2=O)nn1 [A35, 3-{1-[2-methyl-4-(morpholine-4-carbonyl)-phenyl]-1H-[1,2,3]triazol-4-yl}-1H-quinolin-2-one]	0.049	0.65
CC(C)(O)c1ccc(-n2cc(-c3cc4ccccc4[nH]c3=O)nn2)cc1 [A36, 3-{1-[4-(1-hydroxy-1-methyl-ethyl)-phenyl]-1H-[1,2,3]triazol-4-yl}-1H-quinolin-2-one]	0.017	0.029
O=C(c1ccc(-n2cc(-c3cc4ccccc4[nH]c3=O)nn2)cc1F)N1CCOCC1 [A37, 3-{1-[3-fluoro-4-(morpholine-4-carbonyl)-phenyl]-1H-[1,2,3]triazol-4-yl}-1H-quinolin-2-one]	0.009	0.038
COc1cc(-n2cc(-c3cc4ccccc4[nH]c3=O)nn2)cc(OC)c1OC [A38, 3-[1-(3,4,5-trimethoxy-phenyl)-1H-[1,2,3]triazol-4-yl]-1H-quinolin-2-one]	0.58	3.2
CNC(=O)c1ccc(-n2cc(-c3cc4ccccc4[nH]c3=O)nn2)cc1F [A39, 2-fluoro-N-methyl-4-[4-(2-oxo-1,2-dihydro-quinolin-3-yl)-[1,2,3]triazol-1-yl]-benzamide]	0.023	0.074
Cc1cc(-n2cc(-c3cc4ccccc4[nH]c3=O)nn2)ccc1C(=O)N1CCOCC1 [A40, 3-{1-[3-methyl-4-(morpholine-4-carbonyl)-phenyl]-1H-[1,2,3]triazol-4-yl}-1H-quinolin-2-one]	0.007	0.026
O=C(c1ccc(-n2cc(-c3cc4cnccc4[nH]c3=O)nn2)cc1)N1CCOCC1 [A41, 3-{1-[4-(morpholine-4-carbonyl)-phenyl]-1H-[1,2,3]triazol-4-yl}-1H-[1,6]naphthyridin-2-one]	0.044	0.24
CN(C)C(=O)c1ccc(-n2cc(-c3cc4ccncc4[nH]c3=O)nn2)cc1 [A42, N,N-dimethyl-4-[4-(2-oxo-1,2-dihydro-[1,7]naphthyridin-3-yl)-[1,2,3]triazol-1-yl]-benzamide]	0.038	0.084
O=c1[nH]c2ncccc2cc1-c1cnn(-c2ccccc2)c1 [A43, 3-(1-phenyl-1H-pyrazol-4-yl)-1H-[1,8]naphthyridin-2-one]	0.17	0.14
O=c1[nH]c2ccncc2cc1-c1cn(-c2ccc(F)cc2)nn1 [A45, 3-[1-(4-fluoro-phenyl)-1H-[1,2,3]triazol-4-yl]-1H-[1,6]naphthyridin-2-one]	0.33	1.1
O=c1[nH]c2ccncc2cc1-c1cnn(-c2ccccc2)c1 [A46, 3-(1-phenyl-1H-pyrazol-4-yl)-1H-[1,6]naphthyridin-2-one]	0.15	0.37
O=C(c1ccc(-n2cc(-c3cc4cccnc4[nH]c3=O)nn2)cc1)N1CCOCC1 [A47, 3-{1-[4-(morpholine-4-carbonyl)-phenyl]-1H-[1,2,3]triazol-4-yl}-1H-[1,8]naphthyridin-2-one]	0.007	0.024
O=C(c1ccc(-n2cc(-c3cc4c(F)cccc4[nH]c3=O)nn2)cc1)N1CCOCC1 [A48, 5-fluoro-3-{1-[4-(morpholine-4-carbonyl)-phenyl]-1H-[1,2,3]triazol-4-yl}-1H-quinolin-2-one]	0.019	0.017
O=C1COCCN1c1ccc(-n2cc(-c3cc4ccncc4[nH]c3=O)nn2)cc1 [A49, 3-{1-[4-(3-oxo-morpholin-4-yl)-phenyl]-1H-[1,2,3]triazol-4-yl}-1H-[1,7]naphthyridin-2-one]	0.042	0.15
O=C(c1ccc(-n2cc(-c3cc4ccccc4[nH]c3=O)nn2)cc1)N1CCNCC1 [A50, 3-{1-[4-(piperazine-1-carbonyl)-phenyl]-1H-[1,2,3]triazol-4-yl}-1H-quinolin-2-one]	0.014	0.024
O=C(NC1CCNCC1)c1ccc(-n2cc(-c3cc4cccnc4[nH]c3=O)nn2)cc1 [A51, 4-[4-(2-oxo-1,2-dihydro-[1,8]naphthyridin-3-yl)-[1,2,3]triazol-1-yl]-N-piperidin-4-yl-benzamide]	0.022	0.091

Second part, the compound after the results:

IC50 (PDGFRalpha(V561D)) [µM]	IC50 (c-Kit(V654A)) [µM]	Structure (SMILES)
0.027	0.022	O=c1[nH]c2ccccc2cc1-c1cn(-c2ccc(N3CCNCC3)cc2)nn1 [A52, 3-[1-(4-piperazin-1-yl-phenyl)-1H-[1,2,3]triazol-4-yl]-1H-quinolin-2-one]
0.009	0.011	O=C(c1ccc(-n2cc(-c3cc4cc(F)ccc4[nH]c3=O)nn2)cc1)N1CCNCC1 [A53, 6-fluoro-3-{1-[4-(piperazine-1-carbonyl)-phenyl]-1H-[1,2,3]triazol-4-yl}-1H-quinolin-2-one]
0.16	0.49	O=c1[nH]c2ccccc2cc1-c1cn(-c2cnc(N3CCNCC3)nc2)nn1 [A54, 3-[1-(2-piperazin-1-yl-pyrimidin-5-yl)-1H-[1,2,3]triazol-4-yl]-1H-quinolin-2-one]
0.014	0.014	O=c1[nH]c2ccccc2cc1-c1cn(-c2ccc(N3CCCNCC3)cc2)nn1 [A55, 3-[1-(4-[1,4]diazepan-1-yl-phenyl)-1H-[1,2,3]triazol-4-yl]-1H-quinolin-2-one]
0.005	0.007	CN1CCN(C(=O)c2ccc(-n3cc(-c4cc5cc(F)ccc5[nH]c4=O)nn3)cc2)CC1 [A56, 6-fluoro-3-{1-[4-(4-methyl-piperazine-1-carbonyl)-phenyl]-1H-[1,2,3]triazol-4-yl}-1H-quinolin-2-one]
0.006	0.015	CN1CCN(C(=O)c2ccc(-n3cc(-c4cc5ccccc5[nH]c4=O)nn3)cc2)CC1 [A57, 3-{1-[4-(4-methyl-piperazine-1-carbonyl)-phenyl]-1H-[1,2,3]triazol-4-yl}-1H-quinolin-2-one]
0.021	0.044	CN1CCC(NC(=O)c2ccc(-n3cc(-c4cc5ccccc5[nH]c4=O)nn3)cc2)CC1 [A58, N-(1-Methyl-piperidin-4-yl)-4-[4-(2-oxo-1,2-dihydro-quinolin-3-yl)-[1,2,3]triazol-1-yl]-benzamide]
0.046	0.076	CN1CCC(N(C)C(=O)c2ccc(-n3cc(-c4cc5ccccc5[nH]c4=O)nn3)cc2)CC1 [A59, N-methyl-N-(1-methyl-piperidin-4-yl)-4-[4-(2-oxo-1,2-dihydro-quinolin-3-yl)-[1,2,3]triazol-1-yl]-benzamide]
0.033	0.038	CN1CCC(COc2ccc(-n3cc(-c4cc5ccccc5[nH]c4=O)nn3)cc2)CC1 [A60, 3-{1-[4-(1-methyl-piperidin-4-ylmethoxy)-phenyl]-1H-[1,2,3]triazol-4-yl}-1H-quinolin-2-one]
0.011	0.029	CN(C)C1CCN(C(=O)c2ccc(-n3cc(-c4cc5ccccc5[nH]c4=O)nn3)cc2)CC1 [A61, 3-{1-[4-(4-dimethylamino-piperidine-1-carbonyl)-phenyl]-1H-[1,2,3]triazol-4-yl}-1H-quinolin-2-one]
0.046	0.2	CN1CCN(C(=O)c2ccc(-n3cc(-c4cc5cnccc5[nH]c4=O)nn3)cc2)CC1 [A62, 3-{1-[4-(4-methyl-piperazine-1-carbonyl)-phenyl]-1H-[1,2,3]triazol-4-yl}-1H-[1,6]naphthyridin-2-one]
0.04	0.13	CN1CCN(C(=O)c2ccc(-n3cc(-c4cc5ccncc5[nH]c4=O)nn3)cc2)CC1 [A63, 3-{1-[4-(4-methyl-piperazine-1-carbonyl)-phenyl]-1H-[1,2,3]triazol-4-yl}-1H-[1,7]naphthyridin-2-one]
0.016	0.044	CN1CCN(C(=O)c2ccc(-n3cc(-c4cc5cccnc5[nH]c4=O)nn3)cc2)CC1 [A64, 3-{1-[4-(4-methyl-piperazine-1-carbonyl)-phenyl]-1H-[1,2,3]triazol-4-yl}-1H-[1,8]naphthyridin-2-one]

From patent US11939314B2, “Quinolin-2-one derivatives” (MERCK PATENT GMBH, priority 2016, dated 2024)
